From patent US20210170026A1, “ANTICANCER AGENT, RADIOSENSITIZER, AND FOOD COMPOSITION” (KRACIE PHARMA, LTD., priority 2016, published 2021)

Tests used:
[1] = test system: human pancreatic cancer cells, MiaPaCa-2 cells; experiment: Test Example 1: antitumor effects of arctigenin treatment and radiation therapy in mice transplanted with MiaPaCa-2 cells; type: in vivo, BALB/cAJc1-nu/nu mice
Procedure: The antitumor effects of arctigenin treatment and radiation therapy were evaluated. To BALB/cAJc1-nu/nu mice (CLEA Japan, Inc.), 1×10^6 human pancreatic cancer cells, MiaPaCa-2 cells were subcutaneously transplanted. On day 14 after the transplantation, the mice to which the cells were transplanted were divided into four groups of (a) untreated group, (b) arctigenin treatment group, (c) radiation therapy group and (d) arctigenin treatment-radiation therapy-combination group. The arctigenin treatment group and the combination group were treated with arctigenin for two weeks. The arctigenin treatment was conducted by giving feed containing 0.5% (w/w) of the burdock fruit extract of Example 1 to the mice. When the dose of arctigenin was calculated assuming that the daily intake of the feed of the mice was 3 to 5 g, the dose was 1.5 to 2.5 mg/individual/day. After two weeks of the arctigenin treatment, radiation was applied to the tumors of the radiation therapy group and the combination group using an x-ray irradiator (Faxitron X-ray (model: CP160)) under the setting conditions of 160 kV and 6.3 mA at a dose of 20 Gy/fraction through a copper plate filter. Then, the arctigenin administration group and the combination group were treated with arctigenin for two weeks. After the arctigenin treatment, the tumor sizes and the tumor weights of the groups were measured. In addition, the tumors were collected and pathologically analyzed.

[2] = test system: human pancreatic cancer cells, MiaPaCa-2 cells; experiment: Test Example 2: order of arctigenin treatment and radiation therapy in mice transplanted with MiaPaCa-2 cells; type: in vivo, BALB/cAJc1-nu/nu mice
Procedure: In order to evaluate whether the order of the burdock fruit extract treatment and the radiation therapy would affect the antitumor effects, arctigenin treatment was conducted for two weeks either before or after conducting radiation therapy. To BALB/cAJc1-nu/nu mice (CLEA Japan, Inc.), 1×10^6 human pancreatic cancer cells, MiaPaCa-2 cells were subcutaneously transplanted. On day 14 after the transplantation, the mice to which the cells were transplanted were divided into (a) untreated group, (b) arctigenin treatment group, (c) radiation therapy group and (d) arctigenin treatment-radiation therapy-combination group. The (b) arctigenin treatment group was further divided into a group in which two-week arctigenin treatment was started 14 days after the transplantation and a group in which two-week arctigenin treatment was started four weeks after the transplantation. […] When the dose of arctigenin was calculated assuming that the daily intake of the feed of the mice was 3 to 5 g, the dose was 1.5 to 2.5 mg/individual/day. […] After the two-week arctigenin treatment after the radiation therapy, the tumor sizes and the tumor weights of the groups were measured. In addition, the tumors were collected and pathologically analyzed.

[3] = cited from earlier work
[4] = combination of arctigenin treatment and radiation therapy (20 Gy/fraction), two weeks after the radiation therapy, vs untreated group

## COc1cc(C[C@H]2C(=O)OC[C@@H]2Cc2ccc(OC)c(OC)c2)ccc1O [arctigenin]
[1]; after the arctigenin treatment (before radiation therapy), vs untreated group, FIG. 3, FIG. 4
  intratumoral hypoxic region (photon counts/tumor volume) using IVIS: significantly smaller
[1]; after two weeks of first arctigenin treatment (before radiation therapy), vs untreated group, feed containing 0.5% (w/w) burdock fruit extract of Example 1, arctigenin 1.5 to 2.5 mg/individual/day, FIG. 2
  average tumor size: significantly smaller
[1]; arctigenin treatment alone, after end of treatment (two weeks after the radiation therapy), vs untreated group
  tumor size: a tendency towards a smaller tumor size
[1]; [4]
  tumor sizes: significantly smaller
  tumor weights: significantly smaller
[1]; combination of arctigenin treatment and radiation therapy, vs radiation therapy alone
  tumors (size): significantly small
[2]; arctigenin treatment before the radiation therapy, IVIS, FIG. 12
  hypoxic state in the tumor: improved
[2]; two-week arctigenin treatment before radiation therapy (AG-Con, RT(+)) vs arctigenin treatment after radiation therapy (Con-AG, RT(+)), FIG. 11
  average tumor size: shrank significantly
[3]
  solubility in water: insoluble
